Where only a bound is given, the exact number is not on record here.

Ba/F3 V617F cells, sequence (O60674 whole entry V617F): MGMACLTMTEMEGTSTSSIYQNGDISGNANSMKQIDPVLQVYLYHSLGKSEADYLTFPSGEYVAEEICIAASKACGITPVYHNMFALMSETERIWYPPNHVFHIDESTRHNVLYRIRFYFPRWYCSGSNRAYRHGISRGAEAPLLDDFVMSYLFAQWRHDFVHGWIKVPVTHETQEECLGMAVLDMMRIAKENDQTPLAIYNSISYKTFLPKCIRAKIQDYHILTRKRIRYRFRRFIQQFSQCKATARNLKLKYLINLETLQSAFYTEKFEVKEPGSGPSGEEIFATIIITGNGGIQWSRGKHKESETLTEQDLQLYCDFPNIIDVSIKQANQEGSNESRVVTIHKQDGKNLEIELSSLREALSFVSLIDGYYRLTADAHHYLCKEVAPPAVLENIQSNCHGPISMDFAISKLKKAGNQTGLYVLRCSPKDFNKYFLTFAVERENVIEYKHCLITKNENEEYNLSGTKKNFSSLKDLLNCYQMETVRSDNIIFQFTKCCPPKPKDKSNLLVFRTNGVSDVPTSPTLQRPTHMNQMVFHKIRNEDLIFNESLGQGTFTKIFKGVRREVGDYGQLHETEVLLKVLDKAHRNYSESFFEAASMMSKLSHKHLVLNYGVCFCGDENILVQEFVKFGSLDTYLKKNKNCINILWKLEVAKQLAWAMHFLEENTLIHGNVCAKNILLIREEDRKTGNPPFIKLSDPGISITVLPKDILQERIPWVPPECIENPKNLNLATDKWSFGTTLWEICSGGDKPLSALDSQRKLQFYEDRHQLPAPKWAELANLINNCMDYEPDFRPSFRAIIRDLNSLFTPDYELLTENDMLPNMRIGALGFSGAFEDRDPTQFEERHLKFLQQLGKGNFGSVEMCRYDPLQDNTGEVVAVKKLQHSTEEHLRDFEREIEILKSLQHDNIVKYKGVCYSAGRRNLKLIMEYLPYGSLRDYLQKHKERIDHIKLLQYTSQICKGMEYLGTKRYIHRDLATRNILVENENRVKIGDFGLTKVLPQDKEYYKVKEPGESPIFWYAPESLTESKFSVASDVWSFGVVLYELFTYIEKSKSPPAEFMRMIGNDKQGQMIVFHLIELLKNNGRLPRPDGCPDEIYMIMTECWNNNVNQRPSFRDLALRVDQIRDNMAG

In one experiment the target is Ba/F3 V617F cells (Homo sapiens, UniProt O60674, V617F, cells depend on it). The experiment can be described thus: Proliferation assay (Cell Titer-Glo, 72 h) utilizing Ba/F3 V617F cells. The experiment is classed as cell-based, mouse. As to conditions: Ba/F3 V617F cells, proliferation, level of activity given as class symbol, read-out: IC50 (the source's name). Put shortly:
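Ba/F3 V617F cells in RPMI/10% FBS, 1×10^5 cells/mL, exposed in duplicate to 3-fold serial compound dilutions (top 5 mM DMSO stock, diluted 1:250, added as 2× solution in 5% FBS medium) for 72 h at 37 °C. Viability by Cell Titer-Glo luminescence; IC50 reported.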
On to `Cc1cc(Nc2nccc(-c3ccc(N4C[C@@H]5C[C@H]4CO5)nc3)n2)ccc1N1C[C@@H]2C[C@H]1CN2S(C)(=O)=O` [compound 264, 4-(6-((1S,4S)-2-oxa-5-azabicyclo[2.2.1]heptan-5-yl)pyridin-3-yl)-N-(3-methyl-4-((1S,4S)-5-(methylsulfonyl)-2,5-diazabicyclo[2.2.1]heptan-2-yl)phenyl)pyrimidin-2-amine], for which the GI50 was less than 1 µM.
In the case of `Cc1cc(Nc2nccc(-c3ccc(N4C[C@H]5C[C@@H]4CO5)nc3)n2)ccc1N1C[C@@H]2C[C@H]1CN2C` [compound 265, 4-(6-((1R,4R)-2-oxa-5-azabicyclo[2.2.1]heptan-5-yl)pyridin-3-yl)-N-(3-methyl-4-((1S,4S)-5-methyl-2,5-diazabicyclo[2.2.1]heptan-2-yl)phenyl)pyrimidin-2-amine], the GI50 is less than 1 µM.
Consider `Cc1cc(Nc2nccc(-c3cnc4[nH]c5c(c4c3)CCCC5)n2)ccc1N1C[C@@H]2C[C@H]1CN2C` [compound 267, 4-(6,7,8,9-tetrahydro-5H-pyrido[2,3-b]indol-3-yl)-N-(3-methyl-4-((1S,4S)-5-methyl-2,5-diazabicyclo[2.2.1]heptan-2-yl)phenyl)pyrimidin-2-amine], for which the GI50 lay in the range of 1 to 10 µM.
For the molecule `Cc1cc(Nc2nccc(-c3cnc4[nH]c5c(c4c3)CCCC5)n2)ccc1N1C[C@@H]2C[C@H]1CN2S(C)(=O)=O` [compound 268, 4-(6,7,8,9-tetrahydro-5H-pyrido[2,3-b]indol-3-yl)-N-(3-methyl-4-((1S,4S)-5-(methylsulfonyl)-2,5-diazabicyclo[2.2.1]heptan-2-yl)phenyl)pyrimidin-2-amine], the GI50 fell in the range of 1 to 10 µM.
Still for that read-out and setting: as for `Cc1cc(Nc2nccc(-c3ccc(C(F)(F)F)cc3)n2)ccc1N1C[C@@H]2C[C@H]1CN2C` [compound 269, 4-(4-(trifluoromethyl)phenyl)-N-(3-methyl-4-((1S,4S)-5-methyl-2,5-diazabicyclo[2.2.1]heptan-2-yl)phenyl)pyrimidin-2-amine], the figure is less than 1 µM; as for `Cc1cc(Nc2nccc(-c3cnc4c(c3)CN3CCCC3C(=O)N4)n2)ccc1N1C[C@@H]2C[C@H]1CN2C` (stereo partly drawn) [compound 270, 4-(7,8,9,9a-tetrahydro-5H-pyrido[2,3-e]pyrrolo[1,2-a][1,4]diazepin-10(11H)-on-3-yl)-N-(3-methyl-4-((1S,4S)-5-methyl-2,5-diazabicyclo[2.2.1]heptan-2-yl)phenyl)pyrimidin-2-amine], less than 1 µM; as for `CN1C[C@@H]2C[C@H]1CN2c1ccc(Nc2nccc(-c3ccc4c(c3)OC(C)(C)C(=O)N4)n2)cc1C#N` [compound 271, 4-(2,2-dimethyl-3-oxo-3,4-dihydro-2H-benzo[b][1,4]oxazin-7-yl)-N-(3-cyano-4-((1S,4S)-5-methyl-2,5-diazabicyclo[2.2.1]heptan-2-yl)phenyl)pyrimidin-2-amine], less than 1 µM.
Turning to `CN1C[C@@H]2C[C@H]1CN2c1ccc(Nc2nccc(-c3ccc4c(c3)CCCC(=O)N4)n2)cc1C#N` [compound 272, 4-(2-oxo-2,3,4,5-tetrahydro-1H-benzo[b]azepin-7-yl)-N-(3-cyano-4-((1S,4S)-5-methyl-2,5-diazabicyclo[2.2.1]heptan-2-yl)phenyl)pyrimidin-2-amine], the GI50 was less than 1 µM.
Still for that read-out and setting: under `CN1C[C@@H]2C[C@H]1CN2c1ccc(Nc2nccc(-c3ccc4c(c3)SCC(=O)N4)n2)cc1C#N` [compound 273, 4-(3-oxo-3,4-dihydro-2H-benzo[b][1,4]thiazin-7-yl)-N-(3-cyano-4-((1S,4S)-5-methyl-2,5-diazabicyclo[2.2.1]heptan-2-yl)phenyl)pyrimidin-2-amine] stands less than 1 µM.

The experiment is the same for the next values; noted with them: inhibition of JAK2 activity, proliferation of Ba/F3 V617F cells, read-out: IC50 (the source's name).
As for `Cc1cc(Nc2nccc(-c3ccc(N4C[C@@H]5C[C@H]4CO5)nc3)n2)cnc1N1C[C@@H]2C[C@H]1CN2C` [compound 266, 4-(6-((1S,4S)-2-oxa-5-azabicyclo[2.2.1]heptan-5-yl)pyridin-3-yl)-N-(5-methyl-6-((1S,4S)-5-methyl-2,5-diazabicyclo[2.2.1]heptan-2-yl)pyridin-3-yl)pyrimidin-2-amine], the GI50 is less than 1 µM.

The record behind these values is US9624229B2, “Pyrimidine-2-amine compounds and their use as inhibitors of JAK kinases” (Rigel Pharmaceuticals, Inc., priority 2008, dated 2017).
